What was measured:
[1] = tested on: Plutella xylostella (Diamond back moth) ryanodine receptor, containing the G4946E resistance mutation; test: In vitro calcium fluorescence assay (Fluo-8 NW, FDSS) in human embryonic kidney cells expressing the ryanodine receptor; type: cell-based; details: HEK cells expressing P. xylostella RyR G4946E; EC50 normalized against in-assay reference cyantraniliprole; ratio <=1 means equally or more active
Protocol: Human embryonic kidney cells expressing the Plutella xylostella (Diamond back moth) ryanodine receptor, containing the G4946E resistance mutation, are loaded with Fluo-8 No Wash (NW) calcium-sensitive dye which responds by fluorescence to a change in intracellular calcium (e.g. stimulated by activation of ryanodine receptor). Test compounds are added in 10 rates to a 384-well plate containing dye-loaded cells and the fluorescent signal is measured using the Hamamatsu FDSS (Functional Drug Screening system). Dose-response curves are plotted to estimate the EC50. EC50 are normalized against an in-assay reference standard (cyantraniliprole) to address inter-assay variability. The ratio for a given compound is then obtained by the following formula: REC50=EC50 (compound)/EC50 (cyantraniliprole).

[2] = tested on: Resistant Plutella xylostella R1 (G4946E resistance mutation); test: Resistant Plutella xylostella R1 (Diamond back moth) larvicide L3, feeding/contact; type: in vivo; details: CTPR used as standard
Protocol: Resistant Plutella xylostella R1 (Diamond back moth) larvicide L3, feeding/contact Chinese cabbage plants were sprayed with diluted test solutions in an application chamber. Cut off leaves were placed into petri dishes with wetted filter paper and infested 1 day after application with 10 L3 multi-resistant Plutella xylostella larvae having the G4946E resistance mutation. Samples were assessed 4 days after infestation for mortality and growth regulation. CTPR was used as standard and a resistance factor of 146 was obtained for this strain.
Plutella xylostella resistant strain R1 originally collected from Taiwan in 2012 that carries the RyR mutation G4946E conferring resistance to diamides. The strain is reared on cabbage plants (Brassica oleracea) and selected approximately every two weeks with chlorantraniliprole.

[3] = tested on: Resistant Plutella xylostella R4 (RyR mutation G4946E); test: Resistant Plutella xylostella R4 (Diamond back moth) larvicide L1, feeding/contact; type: in vivo; details: CTPR used as standard
Protocol: Resistant Plutella xylostella R4 (Diamond back moth) larvicide L1, feeding/contact 24-well microtiter plates with artificial diet were treated with aqueous test solutions prepared from 10,000 ppm DMSO stock solutions by pipetting. After drying, around 30 Plutella eggs were pipetted through a plastic stencil onto a gel blotting paper and the plate was closed with it. The samples were assessed for mortality in comparison to untreated samples 8 days after infestation. CTPR was used as standard and a resistance factor of 242 was obtained for this strain
Plutella xylostella resistant strain R4 originated in the lab in 2021 from crossing the R1 strain with a lab-reared susceptible P. xylostella strain (SUS). R4 can be reared and tested on artificial diet and also carries the RyR mutation G4946E conferring resistance to diamides. The strain is selected approximately every two weeks with chlorantraniliprole.

Row | Structure (SMILES) | melting point [°C] | REC50 = EC50 (compound)/EC50 (cyantraniliprole) [1] | further results
1 | Cc1cc2nn[nH]c2c(C(N)=O)c1NC(=O)c1cc(OCC(F)(F)F)nn1-c1ncccc1Cl | 142.2 to 160.3 |  | 
2 | Cc1cc2cn[nH]c2c(C(N)=O)c1NC(=O)c1cc(Cn2nnc(C(F)(F)F)n2)nn1-c1ncccc1Cl | 233 to 240 |  | 
3 | Cc1nc2cc(C)c(NC(=O)c3cc(Br)nn3-c3ncccc3Cl)c(C(N)=O)c2o1 | > 250 |  | 
4 | Cc1cc2c(c(C(N)=O)c1NC(=O)c1cc(OCC(F)(F)F)nn1-c1ncccc1Cl)OC(F)(F)O2 | 240 to 245 |  | 
5 | Cc1cc2nn[nH]c2c(C(N)=O)c1NC(=O)c1cc(OC(F)F)nn1-c1ncccc1Cl | 147.5 to 161.2 |  | 
6 | Cc1cc2c(c(C(=O)NC(C)C)c1NC(=O)c1cc(C(F)(F)F)nn1-c1ncccc1Cl)OC(F)(F)O2 [2-(3-chloro-2-pyridyl)-N-[2,2-difluoro-4-(isopropylcarbamoyl)-6-methyl-1,3-benzodioxol-5-yl]-5-(trifluoromethyl)pyrazole-3-carboxamide] |  | 7.27 | 
7 | CNC(=O)c1c(NC(=O)c2cc(C(F)(F)F)nn2-c2ncccc2Cl)c(C)cc2c1OC(F)(F)O2 [2-(3-chloro-2-pyridyl)-N-[2,2-difluoro-6-methyl-4-(methylcarbamoyl)-1,3-benzodioxol-5-yl]-5-(trifluoromethyl)pyrazole-3-carboxamide] |  | 4.65 | 
8 | CNC(=O)c1c(NC(=O)c2cc(Cn3cc(C(F)(F)F)nn3)nn2-c2ncccc2Cl)c(C)cc2c1OC(F)(F)O2 [2-(3-chloro-2-pyridyl)-N-[2,2-difluoro-6-methyl-4-(methylcarbamoyl)-1,3-benzodioxol-5-yl]-5-[[4-(trifluoromethyl)triazol-1-yl]methyl]pyrazole-3-carboxamide] |  | 2.55 | 
9 | CNC(=O)c1c(NC(=O)c2cc(Cn3ncc(C(F)(F)F)n3)nn2-c2ncccc2Cl)c(C)cc2c1OC(F)(F)O2 [2-(3-chloro-2-pyridyl)-N-[2,2-difluoro-6-methyl-4-(methylcarbamoyl)-1,3-benzodioxol-5-yl]-5-[[4-(trifluoromethyl)triazol-2-yl]methyl]pyrazole-3-carboxamide] |  | 6.26 | 
10 | CNC(=O)c1c(NC(=O)c2cc(Cn3nnc(C(F)(F)F)n3)nn2-c2ncccc2Cl)c(C)cc2c1OC(F)(F)O2 [2-(3-chloro-2-pyridyl)-N-[2,2-difluoro-6-methyl-4-(methylcarbamoyl)-1,3-benzodioxol-5-yl]-5-[[5-(trifluoromethyl)tetrazol-2-yl]methyl]pyrazole-3-carboxamide] |  | 5.77 | 
11 | CNC(=O)c1cc(Cl)cc(C)c1NC(=O)c1cc(Br)nn1-c1ncccc1Cl [CTPR, chlorantraniliprole] |  |  | resistance factor obtained for strain R1 [2]: 146; resistance factor obtained for strain R4 [3]: 242
12 | Cc1cc2c(c(C(N)=O)c1NC(=O)c1cc(C(F)(F)F)nn1-c1ncccc1Cl)OC(F)(F)O2 [Compound P19, N-(4-carbamoyl-2,2-difluoro-6-methyl-1,3-benzodioxol-5-yl)-2-(3-chloro-2-pyridyl)-5-(trifluoromethyl)pyrazole-3-carboxamide] |  | 0.50 | 
13 | Cc1cc2c(c(C(N)=O)c1NC(=O)c1cc(Cn3ncc(C(F)(F)F)n3)nn1-c1ncccc1Cl)OC(F)(F)O2 [Compound P21, N-(4-carbamoyl-2,2-difluoro-6-methyl-1,3-benzodioxol-5-yl)-2-(3-chloro-2-pyridyl)-5-[[4-(trifluoromethyl)triazol-2-yl]methyl]pyrazole-3-carboxamide] |  | 0.55 | 
14 | Cc1cc2c(c(C(N)=O)c1NC(=O)c1cc(Cn3cc(C(F)(F)F)nn3)nn1-c1ncccc1Cl)OC(F)(F)O2 [Compound P22, N-(4-carbamoyl-2,2-difluoro-6-methyl-1,3-benzodioxol-5-yl)-2-(3-chloro-2-pyridyl)-5-[[4-(trifluoromethyl)triazol-1-yl]methyl]pyrazole-3-carboxamide] |  | 0.91 | 
15 | Cc1cc2c(c(C(N)=O)c1NC(=O)c1cc(Cn3nnc(C(F)(F)F)n3)nn1-c1ncccc1Cl)OC(F)(F)O2 [Compound P24, N-(4-carbamoyl-2,2-difluoro-6-methyl-1,3-benzodioxol-5-yl)-2-(3-chloro-2-pyridyl)-5-[[5-(trifluoromethyl)tetrazol-2-yl]methyl]pyrazole-3-carboxamide] |  | 0.34 | 

Source: patent US20240324594A1, “Method for Controlling Diamide Resistant Pests and Compounds Therefor” (priority 2021, published 2024)
